Source: US4080449A, “1,2,4,5-Tetrahydro-3H-2-benzazepin-3-ones” (U C B, Societe Anonyme, priority 1976, dated 1978)
Values joined by “and” are separate entries in the source; they are usually repeats but may differ in a detail not shown here. Equal values may be shown once.

Key:
[1] = pharmacological properties of the compounds according to the present invention (Table III footnote, test not specified); assay type: in vivo
[2] = tested on: spinal fixation time; experiment: spinal fixation test (elementary model of memory) after unilateral cerebellar lesion; assay type: in vivo; conditions: rat, i.p., 0.1 mmole/kg (A 17.5, B 22, C 23.7 mg/kg); spinal section 35 minutes after onset of asymmetry
From the text: Action on the mnemic processes is shown particularly by the reduction in the time for spinal fixation, a test which has been described in the literature (see C. Giurgea and F. Mouravieff-Lesuisse, Arch. Int. Pharmacodyn, 191/2, (1971), 279) as an elementary model of memory which is endowed with a pharmacological reactivity in good correlation with clinical physiopathology. In the rat, after unilateral lesion of the cerebellum, there is a postural asymmetry of the hind paws. This asymmetry may persist, even after spinal section, if the animal has been in this situation for a sufficiently long time. This time, which is called the spinal fixation time, is 45 minutes under the experimental conditions. On the other hand, if spinal section is performed before the expiry of this period, for example 35 minutes after the onset of the asymmetry, the latter disappears. […] Conversely, any product which allows the rats to retain the asymmetry (thus achieving spinal fixation) when the spinal section is carried out after 35 minutes, is regarded as being active.
Under these conditions, administration of a compound according to the present invention, for example 2-methyl-1,2,4,5-tetrahydro-3H-2-benzazepin-3-one (compound A), 2-carbamoylmethyl-1,2,4,5-tetrahydro-3H-2-benzazepin-3-one (compound B) and 5-phenyl-1,2,4,5-tetrahydro-3H-2-benzazepin-3-one (compound C) produces the following effects: […]

[3] = tested on: withdrawal reaction of a rat's paw; experiment: active avoidance test (memory retention, paw pressure withdrawal); assay type: in vivo; conditions: for Stimulus initiating the avoidance reaction 24 hours after the first stimulation: s.c.; for minimal effective dose: sc, minimum dose which lowers the stimulus to below 110 g
From the text: The principle of the active avoidance test, which has been developed in our laboratories and used for this purpose, may be described as follows: the withdrawal reaction of a rat's paw subjected to an increasing and measured pressure is observed. The pressure at which the withdrawal reaction is produced is called the reaction threshold. The latter is expressed in grams and thus corresponds to the minimum pressure which, when applied to the paw of the animals, causes withdrawal. It is read off directly from a scale of the apparatus used. […] Use is made of a minimum of 20 rats per test (10 treated rats and 10 control rats), the active dose being defined as the minimum dose which lowers the stimulus to below 110 g.

[4] = tested on: lethality induced by a curarizing agent, oxydipentonium chloride (Brevatonal); experiment: Brevatonal test (protection against lethality induced by oxydipentonium chloride, hypoxia); assay type: in vivo; conditions: mice, i.p.
Method: At the doses used, this curarizing agent brings about a respiratory depression which, in turn, brings about a hypoxi-hypercapnic syndrome. A compound capable of protecting the brain during this short period of hypoxia ensures survival. The compounds are administered to groups of 10 mice one hour before the injection of the curarizing agent; concurrently herewith, a control group of 10 mice is given a physiological salt solution prior to the curarizing agent. For each compound, the proportion of surviving mice is compared with the proportion of surviving control mice by the "Fisher exact probability test". This test, called the Brevatonal test, has also been developed in our laboratories.
Intraperitoneal administration (i.p.) of compounds according to the present invention, namely, 2-methyl-1,2,4,5-tetrahydro-3H-2-benzazepin-3-one (compound A), 2,4-dimethyl-1,2,4,5-tetrahydro-3H-2-benzazepin-3-one (compound G), 2-isobutyl-4-methyl-1,2,4,5-tetrahydro-3H-2-benzazepin-3-one(compound H), 7-chloro-2-methyl-1,2,4,5-tetrahydro-3H-2-benzazepin-3-one (compound J) 8-chloro-2-methyl-1,2,4,5-tetrahydro-3H-2-benzazepin-3-one (compound K) and 8-methyl-2-pentyl-1,2,4,5-tetrahydro-3H-2-benzazepin-3-one (compound L), produces under these conditions the effects set out in the following Table II.

[5] = LD50 determined intraperitoneally in the rat (Spearman-Karber); conditions: in vivo, ip, intraperitoneal
Method: The LD50 doses were determined intraperitoneally in the rat and calculated by using the method of Spearman-Karber (D. J. Finney, Statistical Methods in Biological Assay, pub. Griffin & Co., London, 1952, p. 524).

[6] = tested on: spinal fixation time; conditions: rat, 30 mg/kg (0.2 millimole/kg), same conditions; C. Giurgea and F. Mouravieff-Lesuisse, loc.cit.; cited from earlier work
[7] = 0.175 mg/kg, control (0 mg/kg) A 164, F 154
[8] = 2 mg/kg (0.01 mmole/kg), control G 1/10, H 2/10

## O=C1CCc2ccccc2CN1 [1,2,4,5-tetrahydro-3H-2-benzazepin-3-one]
[1]
  pharmacological properties of the compounds according to the present invention: does not have th

## CN1Cc2ccccc2CCC1=O [A, 2-methyl-1,2,4,5-tetrahydro-3H-2-benzazepin-3-one]
[2]
  spinal fixation after 35 minutes (animals with fixation): three animals out of five
[3]; 0.09 mg/kg, control (0 mg/kg) 164
  Stimulus initiating the avoidance reaction 24 hours after the first stimulation: 146 g
[3]; [7]
  Stimulus initiating the avoidance reaction 24 hours after the first stimulation: 106 g
[3]
  minimal effective dose: 0.175 mg/kg and 1 µmol/kg
[4]; 55 mg/kg (0.32 mmole/kg)
  Fisher exact probability: < 0.005
[4]; 55 mg/kg (0.32 mmole/kg), control 0/10
  Proportion of survivors, treated animals: 7/10
[5]
  LD50: 760 mg/kg

## NC(=O)CN1Cc2ccccc2CCC1=O [B, 2-carbamoylmethyl-1,2,4,5-tetrahydro-3H-2-benzazepin-3-one]
[2]
  spinal fixation after 35 minutes (animals with fixation): two animals out of four

## O=C1CC(c2ccccc2)c2ccccc2CN1 (stereo not shown) [C, 5-phenyl-1,2,4,5-tetrahydro-3H-2-benzazepin-3-one]
[2]
  spinal fixation after 35 minutes (animals with fixation): four animals out of five

## COc1ccc2c(c1)CCC(=O)N(C)C2 [D, 7-methoxy-2-methyl-1,2,4,5-tetrahydro-3H-2-benzazepin-3-one]
[3]; 0.205 mg/kg, control (0 mg/kg) 165
  Stimulus initiating the avoidance reaction 24 hours after the first stimulation: 118 g
[3]; 1 mg/kg, control (0 mg/kg) 165
  Stimulus initiating the avoidance reaction 24 hours after the first stimulation: 90 g
[3]
  minimal effective dose: 1 mg/kg and 5 µmol/kg

## CCCCCN1Cc2ccccc2CC(C)C1=O (stereo not shown) [E, 4-methyl-2-pentyl-1,2,4,5-tetrahydro-3H-2-benzazepin-3-one]
[3]; 0.24 mg/kg, control (0 mg/kg) 166
  Stimulus initiating the avoidance reaction 24 hours after the first stimulation: 122 g
[3]; 0.49 mg/kg, control (0 mg/kg) 166
  Stimulus initiating the avoidance reaction 24 hours after the first stimulation: 89 g
[3]
  minimal effective dose: 0.49 mg/kg and 2 µmol/kg

## Cc1ccc2c(c1)CNC(=O)CC2 [F, 8-methyl-1,2,4,5-tetrahydro-3H-2-benzazepin-3-one]
[3]; [7]
  Stimulus initiating the avoidance reaction 24 hours after the first stimulation: 121 g
[3]; 0.35 mg/kg, control (0 mg/kg) 154
  Stimulus initiating the avoidance reaction 24 hours after the first stimulation: 111 g
[3]; 0.87 mg/kg, control (0 mg/kg) 154
  Stimulus initiating the avoidance reaction 24 hours after the first stimulation: 101 g
[3]
  minimal effective dose: 0.87 mg/kg and 5 µmol/kg

## CC1Cc2ccccc2CN(C)C1=O (stereo not shown) [G, 2,4-dimethyl-1,2,4,5-tetrahydro-3H-2-benzazepin-3-one]
[4]; 2 mg/kg (0.01 mmole/kg)
  Fisher exact probability: < 0.05
[4]; [8]
  Proportion of survivors, treated animals: 6/10

## CC(C)CN1Cc2ccccc2CC(C)C1=O (stereo not shown) [H, 2-isobutyl-4-methyl-1,2,4,5-tetrahydro-3H-2-benzazepin-3-one]
[4]; 2 mg/kg (0.01 mmole/kg)
  Fisher exact probability: < 0.005
[4]; [8]
  Proportion of survivors, treated animals: 9/10
[4]; 7 mg/kg (0.032 mmole/kg)
  Fisher exact probability: < 0.05
[4]; 7 mg/kg (0.032 mmole/kg), control 2/10
  Proportion of survivors, treated animals: 7/10
[4]; 23 mg/kg (0.1 mmole/kg)
  Fisher exact probability: < 0.001
[4]; 23 mg/kg (0.1 mmole/kg), control 1/10
  Proportion of survivors, treated animals: 9/10

## CN1Cc2ccc(Cl)cc2CCC1=O [J, 7-chloro-2-methyl-1,2,4,5-tetrahydro-3H-2-benzazepin-3-one]
[4]; 21 mg/kg (0.1 mmole/kg)
  Fisher exact probability: < 0.01
[4]; 21 mg/kg (0.1 mmole/kg), control 1/10
  Proportion of survivors, treated animals: 7/10
[4]; 66 mg/kg (0.32 mmole/kg)
  Fisher exact probability: < 0.005
[4]; 66 mg/kg (0.32 mmole/kg), control 1/10
  Proportion of survivors, treated animals: 8/10

## CN1Cc2cc(Cl)ccc2CCC1=O [K, 8-chloro-2-methyl-1,2,4,5-tetrahydro-3H-2-benzazepin-3-one]
[4]; 21 mg/kg (0.12 mmole/kg as printed)
  Fisher exact probability: < 0.05
[4]; 21 mg/kg (0.12 mmole/kg as printed), control 1/10
  Proportion of survivors, treated animals: 6/10
[4]; 66 mg/kg (0.37 mmole/kg as printed)
  Fisher exact probability: < 0.05
[4]; 66 mg/kg (0.37 mmole/kg as printed), control 1/10
  Proportion of survivors, treated animals: 6/10

## CCCCCN1Cc2cc(C)ccc2CCC1=O [L, 8-methyl-2-pentyl-1,2,4,5-tetrahydro-3H-2-benzazepin-3-one]
[4]; 78 mg/kg (0.32 mmole/kg)
  Fisher exact probability: < 0.05
[4]; 78 mg/kg (0.32 mmole/kg), control 0/5
  Proportion of survivors, treated animals: 6/10

## NC(=O)CN1CCCC1=O [piracetam, reference compound]
[3]; 1.5 mg/kg, control (0 mg/kg) 153
  Stimulus initiating the avoidance reaction 24 hours after the first stimulation: 120 g
[3]; 3.5 mg/kg, control (0 mg/kg) 153
  Stimulus initiating the avoidance reaction 24 hours after the first stimulation: 90 g
[3]
  minimal effective dose: 3.5 mg/kg and 25 µmol/kg
[3]; tested 24 hours later, versus control animals, dose not given in sentence
  retention in active avoidance test: significant degree of retention
[4]; 45 mg/kg (0.32 mmole/kg)
  Fisher exact probability: not significant
[4]; 45 mg/kg (0.32 mmole/kg), control 0/10
  Proportion of survivors, treated animals: 1/10
[4]; 142 mg/kg (1 mmole/kg)
  Fisher exact probability: not significant
[4]; 142 mg/kg (1 mmole/kg), control 2/10
  Proportion of survivors, treated animals: 4/10
[4]; 454 mg/kg (3.2 mmole/kg)
  Fisher exact probability: < 0.005
[4]; 454 mg/kg (3.2 mmole/kg), control 1/10
  Proportion of survivors, treated animals: 8/10
[6]
  spinal fixation (animals with fixation): four animals out of nine
